In US8673353B2, “Tablet having improved elution properties” (Dainippon Sumitomo Pharma Co., Ltd, priority 2008, dated 2014):
Where a name gives a salt, the structure may show the parent alone.

Assay: Particle size by laser diffraction particle size distribution meter (dry method)
Type: physicochemical
Details: HELOS&RODOS, drug substance used in the Examples
Excerpt: The above-mentioned particle sizes (undersize D50% particle size, undersize D90% particle size etc.) are values measured using a laser diffraction particle size distribution meter (dry method). For example, when a laser diffraction particle size distribution measurement apparatus HELOS & RODOS manufactured by Sympatec GmbH is used, measurement can be performed by setting the measurement range to R3 and the indication basis of the particle amount to volume basis.
The particle size of 3/2 fumarate of compound A used in the following Examples was 0.5-3 μm for undersize D50% and 1-12 μm for undersize D90% particle size, as measured by a dry method using a laser diffraction particle size distribution measurement apparatus, HELOS&RODOS, manufactured by Sympatec GmbH.

undersize D50% particle size: 0.5-3 μm | undersize D90% particle size: 1-12 μm
SMILES: O=C1Nc2ccccc2C(c2ccccc2)N1C1CCN(Cc2cccc(OC(F)(F)F)c2)CC1 (single isomer, unassigned; (+)) [3/2 fumarate of compound A, (+)-3-{1-[3-(trifluoromethoxy)benzyl]piperidin-4-yl}-4-phenyl-3,4-dihydro-2(1H)-quinazolinone]
